Data on 22 compounds can be found in ChEMBL document CHEMBL5230145, “Bifunctional μ opioid and σ1 receptor ligands as novel analgesics with reduced side effects” (Eur J Med Chem, 2021).

Where only a bound is given, the exact number is not on record here.

The test system of one data set is Rodentia sp. Description: Analgesic activity in ip dosed formalin-induced pain rodent model. Format: functional.
Data set [1] is described as follows: Toxicity in ip dosed rodent. Format: organism-based. To be noted: rodentia, in vivo.
The nature of data set [2]: Therapeutic index, ratio of LD50 for toxicity in ip dosed rodent to ED50 for analgesic activity in ip dosed rodent. It is filed as organism-based. To be noted: rodentia, in vivo, read-out: Ratio LD50/ED50.
For data set [3], the target named is T1, Mu-type opioid receptor (Homo sapiens, UniProt P35372). The experiment in a line: Binding affinity to mu opioid receptor (unknown origin) assessed as inhibition constant in presence of Levorphanol.
T1 sequence (P35372 whole entry): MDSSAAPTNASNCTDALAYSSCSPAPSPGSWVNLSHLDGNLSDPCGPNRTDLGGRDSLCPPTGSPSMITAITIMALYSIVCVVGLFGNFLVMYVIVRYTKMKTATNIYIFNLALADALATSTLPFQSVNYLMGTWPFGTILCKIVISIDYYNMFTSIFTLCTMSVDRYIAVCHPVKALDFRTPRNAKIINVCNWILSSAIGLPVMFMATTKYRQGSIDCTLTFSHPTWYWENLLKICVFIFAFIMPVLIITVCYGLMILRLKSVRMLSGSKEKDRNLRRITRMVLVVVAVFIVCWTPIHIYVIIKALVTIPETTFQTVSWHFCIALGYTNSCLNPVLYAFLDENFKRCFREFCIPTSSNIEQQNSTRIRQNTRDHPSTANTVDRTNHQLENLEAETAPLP
The subject of the next data set is Mus musculus. Description: Antiallodynic activity in ip dosed MIA induced mechanical allodynia mouse model. It is filed as functional.
Data set [4] concerns the target T1, Mu-type opioid receptor. Description: Displacement of [3H]-DAMGO from human mu opioid receptor expressed in CHO-K1 cells membrane incubated for 60 mins by MicroBeta scintillation counter assay. Format: cell membranes. On the technique in general: In a radioligand displacement assay an active substance lowers the binding of a labelled ligand.
Data set [5] concerns the target Sigma non-opioid intracellular receptor 1 (Homo sapiens, UniProt Q99720). The experiment in a line: Displacement of [3H](+)-pentazocine from human sigma 1 receptor expressed in HEK293 cells membrane incubated for 120 mins by MicroBeta scintillation counter assay. It is filed as cell membranes.
Data set [6] is described as follows: Metabolic stability in mini-pig liver microsomes assessed as compound remaining after 1 hr. It is filed as ADME, Sus scrofa domesticus, Microsome. The following applies: read-out: Stability. On the technique in general: Liver microsomes are vesicles of endoplasmic reticulum, rich in cytochrome P450 enzymes.
The subject of a further data set is Rattus norvegicus. Description: Analgesic activity in ig dosed formalin-induced pain Sprague-Dawley rat model. It is filed as functional. To be noted: po.
Data set [7] can be described thus: Toxicity in ig dosed Sprague-Dawley rat. It is filed as organism-based. The following applies: in vivo, po.
Data set [8] in a line: Therapeutic index, ratio of LD50 for toxicity in ig dosed Sprague-Dawley rat to ED50 for analgesic activity in ig dosed Sprague-Dawley rat. The following applies: in vivo, po, read-out: Ratio LD50/ED50. Format: organism-based.

Sequence of Sigma non-opioid intracellular receptor 1 (Q99720 whole entry): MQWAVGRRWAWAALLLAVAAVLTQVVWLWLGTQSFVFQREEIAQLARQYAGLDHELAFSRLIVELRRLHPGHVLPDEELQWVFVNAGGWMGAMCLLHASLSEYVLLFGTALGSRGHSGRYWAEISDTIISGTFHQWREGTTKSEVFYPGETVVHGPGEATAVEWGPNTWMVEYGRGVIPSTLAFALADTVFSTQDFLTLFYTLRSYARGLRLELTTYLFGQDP

As usually defined, the ED50 is the midpoint of the dose-response relation. Low readings indicate greater potency, high ones weaker potency. Broadly, the LD50 is the dose at which mortality reaches 50%. A lower LD50 goes with greater toxicity. `Cc1cc(OCCN2CCOCC2)nn1-c1ccc2ccccc2c1`: the 50% effective dose (ED50) with Rodentia sp. is 33.2 mg/kg. For the same compound, the LD50 in data set [1] was determined as 397 mg/kg. The selectivity ratio in data set [2] came to 12.

One may read the Ki as the equilibrium dissociation constant of an inhibitor or competing ligand from its target. Turning to `C[C@@H]1[C@@H]2Cc3ccc(O)cc3[C@]1(C)CCN2CCc1ccccc1`, the Ki on Mu-type opioid receptor [3] worked out at 55 nM.

Regarding `C[C@H]1[C@H]2Cc3ccc(O)cc3[C@@]1(C)CCN2CCc1ccccc1`, the Ki on Mu-type opioid receptor [3] came out at 0.2 nM.

In the data set with Mus musculus, `CCC(=O)N(CC1(N2CCN(CC(C)C)CC2)CCOCC1)c1cccc(C(F)(F)F)n1` showed an ED50 of 31.9 mg/kg.

For the compound `CC(=O)Oc1cccc(C2CCN(Cc3cn(-c4ccccc4)nn3)CC2)c1`, the Ki (at Mu-type opioid receptor [4]; in data set [5]) was under 100 nM throughout.

As for `[2H]C([2H])([2H])C([2H])([2H])N1CC2(CCN(C([2H])([2H])C([2H])([2H])c3cc(F)ccc3F)CC2)O[C@H](C)C1=O`, in data set [6], the remaining at 1 h amounted to 64%.

For `CC(C)S(=O)(=O)Nc1cccc(C2CCN(Cc3cn(-c4ccccc4)nn3)CC2)c1`, the Ki (at Mu-type opioid receptor [4]; in [5]) was under 100 nM each time.

Consider `CN1CCc2ccccc2C12CCN(CCc1ccccc1)CC2`, for which the Ki (at Mu-type opioid receptor [4]; in data set [5]) was under 100 nM throughout.

For `CC(C)S(=O)(=O)Nc1cccc(N2CCN(Cc3cn(-c4ccccc4F)nn3)CC2)c1`, the Ki (at Mu-type opioid receptor [4]; in [5]) was under 100 nM each time.

With `CC(C)S(=O)(=O)Nc1cccc(N2CCN(Cc3cn(-c4ccccc4)nn3)CC2)c1`, the Ki (at Mu-type opioid receptor [4]; in data set [5]) was under 100 nM each time.

`COc1ccc2c(c1)CCN(C)C21CCN(CCc2ccccc2)CC1`: the Ki (at Mu-type opioid receptor [4]; in data set [5]) was under 100 nM throughout.

As for `CCOCCN1CCCCC(CC)(c2cccc(O)c2)C1` (stereo unspecified), the Ki (at Mu-type opioid receptor [4]; in data set [5]) was under 100 nM in each case.

As for `CCC(=O)N(CCN1CCC(N(C)Cc2ccccc2)C1)c1ccccc1` (stereo unspecified), the Ki in data set [5] was found to be 100 nM.

Regarding `O=C(c1ccccn1)C1(N2CCN(Cc3ccccc3)CC2)CCOC2(CCCC2)C1` (stereo unspecified), the Ki (on Mu-type opioid receptor [4]; in [5]) was under 100 nM each time.

Take `CCN1CC2(CCN(CCc3ccccc3)CC2)c2ccccc2C1=O`: the Ki (at Mu-type opioid receptor [4]; in [5]) was 100 nM in each case.

In the case of `CN(CCOC(c1cccs1)c1ccnn1C)Cc1ccccc1` (stereo unspecified), the Ki (at Mu-type opioid receptor [4]; in data set [5]) was under 100 nM in each case.

The compound `Clc1ccc(-c2noc(CCCCN3CCCCC3)n2)c(Cl)c1` displayed an ED50 in the data set on Rattus norvegicus of 52.5 mg/kg. Besides, the LD50 in [7] stood at 957 mg/kg. Further, the selectivity ratio in [8] stood at 18.2.

Take `Oc1cccc(C2CCN(Cc3cn(-c4ccccc4)nn3)CC2)c1`: the Ki (on Mu-type opioid receptor [4]; in data set [5]) was under 100 nM each time.

Regarding `CN1CC2(CCN(CCc3ccccc3)CC2)c2ccccc2C1=O`, the Ki (at Mu-type opioid receptor [4]; in data set [5]) was 100 nM in each case.

Take `CN(CCOC(c1cccs1)c1ccnn1C)CCc1ccccc1` (stereo unspecified): the Ki (on Mu-type opioid receptor [4]; in [5]) was under 100 nM throughout.

On to `O=C(c1ccccc1)C1(N2CCN(Cc3ccccc3)CC2)CCOC2(CCCC2)C1` (stereo unspecified), for which the Ki (at Mu-type opioid receptor [4]; in data set [5]) was under 100 nM throughout.

Take `O=C(c1cccc(C(F)(F)F)n1)C1(N2CCN(Cc3ccccc3)CC2)CCOC2(CCCC2)C1` (stereo unspecified): the Ki (at Mu-type opioid receptor [4]; in data set [5]) was under 100 nM throughout.
